From US20250346642A1, “NEW SPLICE VARIANT ISOFORM OF VEGF” (CENTRE NATIONAL DE LA RECHERCHE SCIENTIFIQUE (CNRS), priority 2020, published 2025)

B1: VEGF165: conventional pro-angiogenic VEGF isoform, recombinant, used as comparator (protein)
chain: APMAEGGGQNHHEVVKFMDVYQRSYCHPIETLVDIFQEYPDEIEYIFKPSCVPLMRCGGCCNDEGLECVPTEESNITMQIMRIKPHQGQHIGEMSFLQHNKCECRPKKDRARQENPCGPCSERRKHLFVQDPQTCKCSCKNTDSRCKARQLELNERTCRCDKPRR

Assays:
786-O cells [1] = assay: 786-O experimental RCC tumors in NMRI mice, antibody treatment (FIG. 10); format: in vivo; details: intraperitoneal once a week for 6 weeks, 5 mg/kg
Source text: FIG. 10. VEGF222/NF inhibition delays tumor growth of experimental RCC. 3M of 786-O cells were subcutaneously grafted in the left flank of NMRI mice. […] Tumor volumes were monitored with a caliper for 50 days. ***P<0.001, ****P<0.0001 (Anova Test).
For generating control or polyclonal anti-VEGF222/NF antibodies, 6 weeks BALB/cJRj mice (n=10) were immunized either with KLH carrier protein or with specific peptides SEQ 1 and SEQ2 coupled to KLH as previously described (Guyot et al., 2017, Targeting the pro-angiogenic forms of VEGF or inhibiting their expression as anti-cancer strategies. Oncotarget 8, 9174-9188) IgG were purified of Protein G Sepharose column. All animal studies were approved in advance by the local animal care committee (Veterinary service and direction of sanitary and social action of Monaco, Dr H. Raps.)

786-O cells [2] = assay: 786-O experimental tumors in mice, anti-VEGFXXX/NF, bevacizumab or anti-KLH treatment (FIG. 12D-J); format: in vivo; details: 786-O tumors
Method: (E) The weight of 786-O tumors at the end of the experiment. (F) Quantification of Ki67 positive cells in 786-0 tumors. […] (G) Number of mature (CD31+, a-SMA+) vessels in the different tumor sections.
Plasma levels of VEGFXXX/NFand VEGF are increased in the VEGF bevacizumab-treated group. […] FIG. 13. A-D) The levels of VEGF and VEGF222/NF were evaluated in the plasma (just before sunitinib treatment) of 47 metastatic ccRCC patients. The third quartile was used as the cut-off to determine patients' groups, respectively 4500 […] for VEGF and VEGF222/NF. The plasma levels of VEGF (A and C) or VEGF222/NF (B and D) were correlated to PFS under first-line sunitinib treatment (A and B) or with OS (C and D). Kaplan-Meier method was used to produce survival curves and analyzes of censored data were performed using Cox models. Statistical significance (p values) is indicated.
Tumor sections (5-μm cryostat sections) were fixed in 4% paraformaldehyde for twenty minutes at room temperature and blocked in 1% donkey serum in Tris-buffered saline (TBS) for two hours. […] Preparations were mounted and analyzed with a Leica microscope (Leica DMI4000B) and counted at a 10× magnification. Results are expressed as the number of vessels per mm^2 of sections.

ACHN cells = assay: Proliferation of ACHN cells overexpressing VEGF165 or VEGF222/NF; format: cell-based; details: overexpression in ACHN cells, versus LacZ
Method: FIG. 6. VEGF222/NF promotes the proliferation and the survival of RCC cells. […] Cells were counted for 7 days. ***P<0.001 vs LacZ. D-E) RT-qPCR analysis of the expression of VEGF222/NF and VEGF in ACHN (D) and in 786-O (E) cells transduced with pLKO.1 expressing shVEGF165 or shVEGF222/NF. *P<0.05. **P<0.01, ***P<0.001 vs Scramble.
For endothelial cell proliferation assays, TIME or HDLECs cells (50.000 and 25.000, respectively) were seeded in 6-well plates in Endothelial Cell Growth Medium (Promocell) containing 0.5% FBS. […] Results were expressed as fold increase considering day 0 as the reference. For ACHN proliferation, ACHN-LacZ, ACHN-VEGF165, ACHN-VEGF222/NF cells were seeded (20.000) in 6-well plates in DMEM medium containing 0.5% FBS. Cells were counted at day 0, 1, 3, 5 and 7. Results are expressed as fold increase considering day 0 as the reference.

[3] = In vivo […] plug assay (hemoglobin content); set-up: species or system mice; details: 200 ng in 200 μL MATRIGEL, two weeks
Method: A″) VEGF222/NF induces phosphorylation of VEGFR2 and activation of the downstream signaling pathways AKT and ERK. […] Cells were washed with PBS and lyzed with Laemmli buffer. Immuno blots were performed with the indicated antibodies. […] Cells were counted for 7 days. […] D) Wound closure was determined at 3 h, 6 h, 9 h and 12 h following treatment. E) In vitro permeability assay. […] Streptavidin-HRP was then added to the transwell for 10 minutes and TMB substrate was added in the lower compartment to assess permeability. F) In vivo permeability assay. […] After 20 minutes, ears were recovered, and the amount of Evans blue was determined by colorimetry (top panel). […] G) In vivo plug assay. […] Representative photographs of the […]® plug 15 days after implantation (bottom panel).
6-weeks old female NMRI mice (n=15) were used for this experiment. […] […]® plugs were recovered after two weeks for hemoglobin quantity analysis. Plugs hemoglobin content was assessed with the hemoglobin assay kit (Sigma Aldrich) and experiments were conducted according to the manufacturer recommendations. Results are expressed in micrograms of hemoglobin per milligram of […]®.

Row | Molecule | tumor growth of 786-O experimental tumors (786-O cells [1]) | number of lymphatic vessels (LYVE1+) in tumors (786-O cells [2]) | size of tumors versus control group (786-O cells [2]) | ACHN cell proliferation (ACHN cells) | reddish aspect and hemoglobin content of plugs [3]
1 | bevacizumab | did not | stimulated their development | equivalent to those of the control group | – | –
2 | B1 | – | – | – | stimulated ACHN cell proliferation | equivalent
